Consider eight compounds from patent publication US6413974B1, “6,9,-disubstituted 2-[trans-(4-aminocyclohexyl) amino] purines” (Aventis Pharmaceuticals Inc., priority 1998, dated 2002).

“And” between values parts separate entries of the source, which are not always exact repeats. Identical values can stand only once. Counter-ions that a name gives are not always drawn. Like-named read-outs stand apart in the source and are kept apart here.

One test concerns the target T1, cdk4/cyclin D1 (Homo sapiens, UniProt P11802).
T1 construct: made in house; host or cells: Sf9 insect cells (Bac-to-Bac baculovirus, pFastBac)
The test can be described thus: Cyclin-dependent kinase 4 Assay. The test is classed as biochemical. As to conditions: cdk4/cyclin D1, GST-Rb substrate, 10 μM ATP, 30 min at 37° C.; read-out: CDK4 Inhibition IC50. How it is done:
The IC50 values for cdk-4 inhibition were by the following method:
(§1) The transformed bacteria were grown overnight to saturation, then diluted in YT broth and incubated at 37° C. for 2 h. The protein was induced by incubation with 0.1 mM isopropylthioglycoside for 3 h. Following sedimentation by centrifugation, the cells were lysed by sonication in STE buffer ([…] NaCl, 10 mM Tris, pH 8.0, 1 mM EDTA) containing 10% sarkosyl. Particulate matter was removed by centrifugation and the lysate was incubated with glutathione-Sepharose at 4° C. The beads were washed with kinase buffer and then quantitation of Coomassie blue-stained proteins separated by SDS-PAGE was performed using a protein standard of known concentration.
The cDNA for human cyclin D1 was cloned by RT PCR using […] from MCF-7 cells. […] Bacmid DNA was used to transfect Sf9 insect cells to produce recombinant virus. Following plaque purification of the virus, the viral preparations were amplified until high titer stocks were acheived.
Lysates were prepared by lysis of Sf9 cells coinfected with cdk4 and cyclin D1 in 50 mM HEPES, pH 7.5, 10 mM MgCl2, 1 mM DTT, 0.1 mM phenylmethylsulfonyl fluoride, 5 μg/ml aprotinin, and 5 μg/ml leupeptin using a PARR bomb under 500 p.s.i nitrogen pressure for 5 min at 4° C. Insoluble material was sedimented at 10,000×g for 20 min at 4° C. Glycerol was added to the supernatant to 10% and stored at −80° C. in aliquots.
(§2) Pre-wet Millipore Multiscreen 96-well filter plates (0.65 μm Durapore filters) with 200 μl kinase buffer (50 mM HEPES, pH 7.5, 10 mM MgCl2, 1 mM EGTA). GST-Rb (0.5 μg) bound to glutathione-Sepharose beads is added in 50 μl per well and the solution removed by application of vacuum. […] Add 0.1 μg cdk4/cyclin D1 (insect cell lysate) to initiate assay. Incubate 30 min at 37° C. Terminate reaction by filtration on Millipore Vacuum Manifold. Wash four times with TNEN (20 mM Tris, pH 8.0, 100 mM Na Cl, 1 mM EDTA, 0.5% nonidet P-40). After drying the plates at room temperature, the filter plates were placed in adapter plates (Packard) and 40 μl of Microscint-O® (Packard) was added to each well. Top Seal A film was used to cover the plates before counting in a Top Count Scintillation Counter.

The target of a further test is T2, cdk2/cyclin E (Homo sapiens, UniProt P24941).
T2 construct: made in house; host or cells: insect cells (baculovirus co-infection)
Briefly: Cyclin-Dependent Kinase 2 Assay (cdk-2 inhibition). As to conditions: GST-Rb substrate, 30 min at 30° C. The test is classed as biochemical. How it is done: as §1, §2
GST-Rb as described above for cdk4/cyclin D1
Assay conditions for cdk2/cyclin E were identical to those for cdk4/cyclin D1 including the substrate. The concentration of recombinant cdk2/cyclin E in the assay was 0.1 μg per 100 μl assay. Incubation was for 30 min at 30° C.

The next test has as its system HT-29. Briefly: In vitro tumor cell proliferation, HT-29. The test is classed as cell-based, human. As to conditions: read-out: In vitro Tumor Cell Proliferation (IC50, μM) Colon HT-29 (converted). How it is done:
(§3) The proliferation of tumor cells was measured using a sulforhodamine B assay as described in Skehan, P., et al., J. Natl. Cancer Inst. […] Tumor cells were harvested with trypsin-EDTA, cells that excluded trypan blue were counted, added to 96-well plates and incubated overnight at 37° C. Drug was added to the wells following dilution in culture medium. Three days later, the medium was removed and replenished with medium containing fresh drug and incubated an additional 4 days. The cells were then fixed with 0.1 ml 10% trichloroacetic acid for 60 min at 4° C. The plates were rinsed five times with tap water, air-dried and stained for 30 min with 0.4% sulforhodamine B in 1% acetic acid and air-dried.
(§4) Alternatively, the CyQUANT cell proliferation assay was used to quantify tumor cell proliferation. Tumor cells were harvested with trypsin-EDTA, cells that excluded trypan blue were counted, added to 96-well plates and incubated overnight at 37° C. Drug was added to the wells following dilution in culture medium. Three days later the medium was removed and the plates frozen at −80° C. for at least 30 minutes.
HT-29 is a human colon adenocarcinoma, moderately well-differentiated grade II (HTB 38);

The next test deals with DMS-114. Briefly: In vitro tumor cell proliferation, DMS-114. The format is cell-based, human. To be noted: read-out: In vitro Tumor Cell Proliferation (IC50, μM) Lung DMS-114. How it is done:
as §3, §4

For a further test, the system named is A549. The test can be described thus: In vitro tumor cell proliferation, A549. As to conditions: read-out: In vitro Tumor Cell Proliferation (IC50, μM) Lung A549. The test is classed as cell-based, human. How it is done:
as §3, §4

The next test deals with PC-3. Briefly: In vitro tumor cell proliferation, PC-3. As to conditions: read-out: In vitro Tumor Cell Proliferation (IC50, μM) Prostate PC-3. The format is cell-based, human. How it is done: as §3, §4
In another test the test system is DU 145. The test can be described thus: In vitro tumor cell proliferation, DU 145. To be noted: read-out: In vitro Tumor Cell Proliferation (IC50, μM) Prostate DUI45. The test is classed as cell-based, human. How it is done:
as §3, §4

Another test deals with Colo-205. Briefly: In vitro tumor cell proliferation, Colo-205. The format is cell-based, human. As to conditions: read-out: In vitro Tumor Cell Proliferation (IC50, μM) Colon Colo-205. How it is done:
as §3, §4

A further test deals with MDA-MB-231. Briefly: In vitro tumor cell proliferation, MDA-MB-231. The format is cell-based, human. To be noted: read-out: In vitro Tumor Cell Proliferation (IC50, μM) Breast MDA-MB-231. How it is done:
as §3, §4

The mark [1] stands for this setting: Homo sapiens, HT-29, values marked * (mark not explained).
[2] abbreviates: Homo sapiens, DMS-114, values marked * (mark not explained).
Setting [3] is: Homo sapiens, A549, values marked * (mark not explained).
The mark [4] stands for this setting: Homo sapiens, PC-3, values marked * (mark not explained).
Where [5] appears, read: Homo sapiens, DU-145, values marked * (mark not explained).
Where [6] appears, read: Homo sapiens, COLO 205, values marked * (mark not explained).
Setting [7] is: Homo sapiens, MDA-MB-231, values marked * (mark not explained).
Where [8] appears, read: values marked * (mark not explained), dihydrochloride.
Where [9] appears, read: values marked * (mark not explained), trihydrochloride.
Setting [10] is: values without *, dihydrochloride.

T1 sequence (P11802 whole entry): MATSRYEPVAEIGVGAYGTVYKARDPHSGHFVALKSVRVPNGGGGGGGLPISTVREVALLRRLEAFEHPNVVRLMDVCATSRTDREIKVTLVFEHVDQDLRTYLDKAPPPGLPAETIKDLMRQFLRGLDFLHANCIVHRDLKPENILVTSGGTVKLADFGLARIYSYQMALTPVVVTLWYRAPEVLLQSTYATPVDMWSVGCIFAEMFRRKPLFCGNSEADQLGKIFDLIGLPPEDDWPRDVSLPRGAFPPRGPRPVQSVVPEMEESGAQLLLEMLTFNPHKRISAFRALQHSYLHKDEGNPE
T1 sequence (P24385 whole entry partner): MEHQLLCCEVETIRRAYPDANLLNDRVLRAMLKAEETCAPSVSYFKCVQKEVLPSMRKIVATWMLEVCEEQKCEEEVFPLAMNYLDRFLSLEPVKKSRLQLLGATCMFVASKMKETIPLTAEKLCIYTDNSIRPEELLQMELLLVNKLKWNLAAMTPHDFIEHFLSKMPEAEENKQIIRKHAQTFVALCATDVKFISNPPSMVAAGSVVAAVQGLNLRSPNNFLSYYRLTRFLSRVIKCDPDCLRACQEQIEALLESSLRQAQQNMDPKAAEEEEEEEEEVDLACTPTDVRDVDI

In the case of `CC(C)n1cnc2c(NCc3cccc(I)c3)nc(N[C@H]3CC[C@H](N)CC3)nc21` [Example 51, 2-[Trans-(4-aminocyclohexyl)amino]-6-[(3-iodobenzyl)amino]-9-(2-propyl)purine dihydrochloride], the IC50 on cdk4/cyclin D1 came out at 2100 nM; at cdk2/cyclin E, 780 nM.

`C[C@H](Nc1nc(N[C@H]2CC[C@H](N)CC2)nc2c1ncn2C1CCCC1)c1ccccc1` [Example 6, (S)-2-[Trans-(4-aminocyclohexyl)amino]-6-[(α-methylbenzyl)amino]-9-cyclopentylpurine dihydrochloride]: the results for the IC50 on cdk4/cyclin D1 and at cdk2/cyclin E were over 100000 nM and 2600 nM, respectively.

In the case of `CC(C)n1cnc2c(NCc3cccc(Cl)c3)nc(N[C@H]3CC[C@H](N)CC3)nc21` [Example 15, 2-[Trans-(4-aminocyclohexyl)amino]-6-[(3-chloro)benzylamino]-9-(2-propyl)purine dihydrochloride], the IC50 in the test on HT-29 (setting [1]) is 2.7 µM; in the test with DMS-114 (setting [2]), 1.3 µM; on cdk4/cyclin D1, 1500 nM; with A549 (setting [3]), 1.4 µM; in the test on PC-3 (setting [4]), 2.3 µM; against cdk2/cyclin E, 100 nM. Also, the IC50 worked out at 2.8 µM in the test with DU 145 (setting [5]), 2.4 µM in the test with Colo-205 (setting [6]) and 3 µM with MDA-MB-231 (setting [7]).

Turning to `CCNc1nc(N[C@H]2CC[C@H](N)CC2)nc2c1ncn2C1CCCC1` [Example 33, 2-[Trans-(4-aminocyclohexyl)amino]-6-(ethylamino)-9-cyclopentylpurine dihydrochloride], the IC50 with HT-29 (setting [1]) is 1.5 µM; with HT-29 (setting [8]), 2.1 µM; with DMS-114 (setting [2]), 0.7 µM; with DMS-114 (setting [8]) it was 0.9 µM; on cdk4/cyclin D1, 180 nM; with A549 (setting [3]), 1.2 µM. The IC50 is 1.8 µM with A549 (setting [8]); 0.9 µM in the test with PC-3 (setting [4]); 1 µM with PC-3 (setting [8]); 14 nM and 26 nM and 6 nM on cdk2/cyclin E; 0.8 µM in the test on DU 145 (setting [5]); 2.1 µM in the test with Colo-205 (setting [6]).

Regarding `N[C@H]1CC[C@H](Nc2nc(NCc3ccco3)c3ncn(C4CCCC4)c3n2)CC1` [Example 38, 2-[Trans-(4-aminocyclohexyl)amino]-6-(2-furanmethylamino)-9-cyclopentylpurine dihydrochloride], the IC50 with HT-29 (setting [1]) was 2.1 µM; in the test on HT-29 (setting [8]), 3.6 µM; in the test on DMS-114 (setting [2]), 1.2 µM; on cdk4/cyclin D1, 1400 nM; in the test on A549 (setting [3]) it was 1.7 µM; in the test with A549 (setting [8]), 1.1 µM. For the same compound, the IC50 amounted to 1.4 µM in the test with PC-3 (setting [4]); 1.7 µM with PC-3 (setting [8]); 19 nM against cdk2/cyclin E; 2.4 µM in the test with Colo-205 (setting [6]); 2.8 µM in the test on Colo-205 (setting [8]).

As for `N[C@H]1CC[C@H](Nc2nc(NCCc3ccc4c(c3)OCO4)c3ncn(C4CCCC4)c3n2)CC1` [Example 4, 2-[Trans-(4-aminocyclohexyl)amino]-6-[2-(3,4-methylenedioxyphenyl)ethylamino]-9-cyclopentylpurine dihydrochloride], the IC50 is over 100000 nM on cdk4/cyclin D1 and 5100 nM on cdk2/cyclin E.

With `N[C@H]1CC[C@H](Nc2nc(NCCN3CCOCC3)c3ncn(C4CCCC4)c3n2)CC1` [Example 13, 2-[Trans-(4-aminocyclohexyl)amino]-6-[2-(4-morpholinyl)ethylamino]-9-cyclopentylpurine trihydrochloride], the IC50 was 11 µM with HT-29 (setting [1]); 8.8 µM with DMS-114 (setting [2]); 6.2 µM in the test with DMS-114 (setting [9]); 3200 nM and 4200 nM at cdk4/cyclin D1; 7.9 µM in the test on A549 (setting [3]); 6.9 µM with A549 (setting [9]). Further, the IC50 in the test on PC-3 (setting [4]) came out at 7.2 µM; with PC-3 (setting [9]), 6.4 µM; at cdk2/cyclin E, 110 nM; in the test on DU 145 (setting [5]), 6.7 µM; in the test with DU 145 (setting [9]) it was 7.5 µM; with Colo-205 (setting [6]) it was 5.3 µM. The IC50 in the test with Colo-205 (setting [9]) came out at 5.2 µM; in the test on MDA-MB-231 (setting [7]), 4.8 µM; in the test with MDA-MB-231 (setting [9]), 9.4 µM.

In the case of `N[C@H]1CC[C@H](Nc2nc(NCc3ccccc3F)c3ncn(C4CCCC4)c3n2)CC1` [Example 42, 2-[Trans-(4-aminocyclohexyl)amino]-6-[(2-fluorobenzyl)amino]-9-cyclopentylpurine dihydrochloride], the IC50 was 15 µM in the test on HT-29 (Homo sapiens, HT-29, values without *); 10 µM in the test with DMS-114 (Homo sapiens, DMS-114, values without *); 5.1 µM in the test on DMS-114 (setting [10]); 1000 nM and 6000 nM on cdk4/cyclin D1; 7.1 µM with A549 (Homo sapiens, A549, values without *); 8.8 µM in the test on PC-3 (Homo sapiens, PC-3, values without *). In addition, the IC50 in the test with PC-3 (setting [10]) is 7.1 µM; against cdk2/cyclin E it was 420 nM; in the test on DU 145 (Homo sapiens, DU-145, values without *), 7.3 µM; with MDA-MB-231 (Homo sapiens, MDA-MB-231, values without *) it was 16 µM; in the test with MDA-MB-231 (setting [10]), 17 µM.
